{
  "source": "paper PMC9029776",
  "about": "“Development and Experimental Validation of Regularized Machine Learning Models Detecting New, Structurally Distinct Activators of PXR” (Cells, 2022)",
  "data": [
    {"target": "T1, pregnane X receptor (PXR) (Homo sapiens, UniProt O75469)", "T1 construct": "gene NR1I2; PXR-LBD (132-188) + (189-434)", "T1 sequence (O75469 132-188)": "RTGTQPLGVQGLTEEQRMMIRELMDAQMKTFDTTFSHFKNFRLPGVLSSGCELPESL", "T1 sequence (O75469 189-434)": "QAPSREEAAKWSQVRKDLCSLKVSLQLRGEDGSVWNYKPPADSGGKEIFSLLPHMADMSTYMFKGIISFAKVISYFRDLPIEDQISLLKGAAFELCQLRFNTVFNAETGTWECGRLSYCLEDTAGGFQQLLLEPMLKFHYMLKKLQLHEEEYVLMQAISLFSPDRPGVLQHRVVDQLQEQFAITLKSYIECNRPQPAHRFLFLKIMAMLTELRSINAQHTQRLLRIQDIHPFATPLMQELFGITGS", "assay": "mammalian two-hybrid PXR-LBD assembly assay in HepG2", "format": "cell-based", "settings": "hepg2, 10 µM", "values": [
      {"substance": "MolPort-000-431-925 [compound 22]", "Measured Activity ^1": "91.00 % of rifampicin activity at 10 µM"},
      {"substance": "MolPort-000-431-934 [compound 43]", "Measured Activity ^1": "71.67 % of rifampicin activity at 10 µM"},
      {"substance": "MolPort-006-629-818 [compound 34]", "Measured Activity ^1": "100.91 % of rifampicin activity at 10 µM"},
      {"substance": "MolPort-006-630-110 [compound 39]", "Measured Activity ^1": "80.37 % of rifampicin activity at 10 µM"}
    ]},
    {"target": "T2, pregnane X receptor (PXR) (Homo sapiens, UniProt O75469)", "T2 construct": "gene NR1I2; PXR-LBD (132-188) + (189-434) assembly; LBD (108-434) in co-factor assays", "T2 sequence (O75469 108-434)": "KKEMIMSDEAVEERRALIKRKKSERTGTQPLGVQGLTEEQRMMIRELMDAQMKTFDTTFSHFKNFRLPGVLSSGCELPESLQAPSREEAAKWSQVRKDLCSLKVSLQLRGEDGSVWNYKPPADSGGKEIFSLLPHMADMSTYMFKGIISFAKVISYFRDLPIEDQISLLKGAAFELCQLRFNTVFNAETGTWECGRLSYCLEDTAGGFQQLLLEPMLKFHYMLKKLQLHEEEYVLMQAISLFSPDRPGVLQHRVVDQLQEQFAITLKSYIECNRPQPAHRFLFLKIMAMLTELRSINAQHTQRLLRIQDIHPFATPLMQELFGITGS", "assay": "mammalian two-hybrid PXR-LBD assembly assay in HepG2; NCOR2 release, NCOA1 recruitment; SPA70-blocked CYP3A4 reporter", "format": "cell-based", "settings": "hepg2, 10 µM", "values": [
      {"substance": "MolPort-000-431-927 [compound 42]", "Measured Activity ^1": "115.84 % of rifampicin activity at 10 µM"},
      {"substance": "MolPort-002-216-386 [compound 53]", "Measured Activity ^1": "84.18 % of rifampicin activity at 10 µM"},
      {"substance": "MolPort-006-630-224 [compound 25]", "Measured Activity ^1": "136.87 % of rifampicin activity at 10 µM"}
    ]}
  ]
}
